Source: publication PMC9952648, “Structural Features Governing the Metabolic Stability of Tetraethyl-Substituted Nitroxides in Rat Liver Microsomes” (Antioxidants, 2023)
Read-outs that look alike come from different tables or passages of the source. Marks after values point to notes of the source that are not given here.

Legend:
[1] = system: rat liver microsomes (RLM); conditions: anaerobic; for EPR signal regenerated by reoxidation with potassium ferricyanide: ferricyanide 1 mM added to whole system after 30 min incubation (nitroxide 5: with simultaneous Clo 25 μM)
Protocol: Addition of NADPH to a final concentration of 1 mM started the reaction. Samples were mixed and transferred to glass microcapillary pipettes (50 μL, Hirschmann) that had been previously purged with N2.

[2] = cited from earlier work
[3] = Reduction of nitroxides by excess ascorbate monitored by stopped-flow EPR; format: physicochemical; conditions: potassium phosphate buffer 0.1 M, pH 7.4, equilibrated with air, 21 °C; This work
From the text: A 4-bore AquaX quartz cell (Bruker) inserted into the cavity was connected to a Bio-Logic MPS-51 stop-flow apparatus with three syringes (Bio-Logic, Claix, France) controlled by the Bio-Logic MPS software. […] The initial second-order reaction rate constant of the reaction of nitroxides with ascorbate, k0 values was derived from experimental results as previously described.

[4] = system: rat liver microsomes (RLM); assay: Aerobic incubation of nitroxides with rat liver microsomes and NADPH monitored by EPR; conditions: for Nitroxide recovered upon reoxidation with potassium ferricyanide: ferricyanide 1 mM added to whole system after 30 min incubation; for Initial rate of decrease, + Clo / Initial rate of decrease, + Clo (per P450): whole system + clotrimazole 25 μM; for Initial rate of decrease, + Clo / Initial rate of decrease, + Clo (per P450) / Initial rate of decrease, +DPI / Initial rate of decrease, +DPI (per P450) / Initial rate of decrease, -NADPH / Initial rate of decrease, -RLM: nitroxide 100 µM; for Initial rate of decrease, +DPI / Initial rate of decrease, +DPI (per P450): whole system + diphenyliodonium chloride 100 μM; for Initial rate of decrease, WS / Initial rate of decrease, WS (per P450): whole system: nitroxide 100 µM + RLM + NADPH, pH 7.4, 21 °C; for Initial rate of decrease, -NADPH: without NADPH; for Initial rate of decrease, -RLM: without RLM; for Decay in 30 min (conversion by P450): RLM + NADPH
liver homogenates = system: liver homogenates; parameters: method as in PMID 34641310; conditions: ref 29; cited from earlier work
[5] = whole system + clotrimazole 25 μM, nitroxide 100 μM
[6] = whole system + diphenyliodonium chloride 100 μM, nitroxide 100 μM
[7] = whole system: nitroxide 100 μM + RLM + NADPH, pH 7.4, 21 °C
[8] = reaction measured with ascorbate and glutathione mixtures

Row | Structure (SMILES) | EPR signal regenerated by reoxidation with potassium ferricyanide [1] | Initial second-order reaction rate constant k0 for reduction by excess ascorbate [2, 8] | Initial second-order reaction rate constant k0 for reduction by excess ascorbate ([2]; ref 42) | Initial second-order reaction rate constant k0 for reduction by excess ascorbate [3] | Nitroxide recovered upon reoxidation with potassium ferricyanide [4] | Initial rate of decrease, + Clo [4] | Initial rate of decrease, +DPI [4] | Initial rate of decrease, WS [4] | Initial rate of decrease, WS (per P450) [4] | Initial rate of decrease, -NADPH [4] | Initial rate of decrease, -RLM [4] | also measured
1 | CC1(C)CC(=O)CC(C)(C)N1[O] [Nitroxide 1, 2,2,6,6-tetramethyl-4-oxo(piperidine-1-yloxyl) radical, reference compound] | 37% | 7.2 ± 0.8 ^a M^−1·s^−1 | 5.75 ± 0.04 M⁻¹ s⁻¹ | 6.9 ± 0.1 M⁻¹ s⁻¹ | 15% | 1.2 ± 0.3 nmol·min^−1·mg^−1 prot | 5.1 ± 0.3 nmol·min^−1·mg^−1 prot | 11.1 ± 0.8 nmol·min^−1·mg^−1 prot | 2.8 ± 0.2 nmol·min^−1·nmol^−1 P450 | 0.0 *** nmol·min^−1·mg^−1 prot | 0.0 *** nmol·min^−1·mg^−1 prot | Initial rate of decrease, + Clo [1, 5]: 4.3 ± 0.4 nmol·min^−1·mg^−1·prot; Initial rate of decrease, + Clo (per P450) [1, 5]: 1.1 ± 0.2 nmol·min^−1·nmol^−1·P450; Initial rate of decrease, +DPI [1, 6]: 2.7 ± 0.3 nmol·min^−1·mg^−1·prot; Initial rate of decrease, +DPI (per P450) [1, 6]: 0.70 ± 0.08 nmol·min^−1·nmol^−1·P450; Initial rate of decrease, WS [1, 7]: 19.3 ± 0.9 nmol·min^−1·mg^−1·prot; Initial rate of decrease, WS (per P450) [1, 7]: 5.0 ± 0.5 nmol·min^−1·nmol^−1·P450; Initial rate of decrease, -NADPH ([1]; without NADPH, nitroxide 100 μM): 0.0 ** nmol·min^−1·mg^−1·prot; Initial rate of decrease, -RLM ([1]; without RLM, nitroxide 100 μM): 0.0 ** nmol·min^−1·mg^−1·prot; Initial second-order reaction rate constant k0 for reduction by excess ascorbate ([2]; ref 57): 6.9 ± 0.7 M⁻¹ s⁻¹; Initial rate of decrease, + Clo (per P450) [4]: 0.30 ± 0.09 nmol·min^−1·nmol^−1 P450; Initial rate of decrease, +DPI (per P450) [4]: 1.31 ± 0.07 nmol·min^−1·nmol^−1 P450
2 | CC1(C)CC(C(=O)O)C(C)(C)N1[O] (centres unmarked) [Nitroxide 2, 3-carboxy-2,2,5,5-tetramethyl-1-pyrrolidinyloxyl] |  | 0.060 ± 0.003 ^a M^−1·s^−1 | 0.079 ± 0.001 M⁻¹ s⁻¹ | 0.072 ± 0.003 M⁻¹ s⁻¹ | 42% | 0.94 ± 0.09 nmol·min^−1·mg^−1 prot | 2.1 ± 0.3 nmol·min^−1·mg^−1 prot | 4.8 ± 0.8 nmol·min^−1·mg^−1 prot | 1.2 ± 0.1 nmol·min^−1·nmol^−1 P450 | 0.0 ** nmol·min^−1·mg^−1 prot | 0.0 ** nmol·min^−1·mg^−1 prot | Initial second-order reaction rate constant k0 for reduction by excess ascorbate ([2]; ref 70): 0.11 ± 0.01 M⁻¹ s⁻¹; Initial rate of decrease, + Clo (per P450) [4]: 0.24 ± 0.03 nmol·min^−1·nmol^−1 P450; Initial rate of decrease, +DPI (per P450) [4]: 0.54 ± 0.07 nmol·min^−1·nmol^−1 P450
3 | CCC1(CC)C=C(C(=O)O)C(CC)(CC)N1[O] [Nitroxide 4, 3-carboxy-2,2,5,5-tetrethyl-pyrrolinyloxyl] | hardly detectable | 0.00122 ± 0.00003 ^a M^−1·s^−1 |  | 0.0077 ± 0.0009 M⁻¹ s⁻¹ | not the case | 0.0 ** nmol·min^−1·mg^−1 prot | 0.0 ** nmol·min^−1·mg^−1 prot | 0.84 ± 0.09 nmol·min^−1·mg^−1 prot | 0.22 ± 0.03 nmol·min^−1·nmol^−1 P450 | 0.0 ** nmol·min^−1·mg^−1 prot | 0.0 ** nmol·min^−1·mg^−1 prot | Decay in 30 min (conversion by P450) [4]: 5–10%
4 | CCC1(CC)CC(CN)C(CC)(CC)N1[O] (centres unmarked) [Compound 6, 3-(aminomethyl)-2,2,5,5-tetraethylpyrrolidineyloxyl] |  |  |  |  |  |  |  |  |  |  |  | Decay in liver homogenates (liver homogenates): significantly decayed
5 | CCC1(CC)CC(CNC(=O)C[P+](c2ccccc2)(c2ccccc2)c2ccccc2)C(CC)(CC)N1[O].[Cl-] (centres unmarked) [Compound 7, 3-(2-triphenylphosphonio)acetamidomethyl-2,2,5,5-tetraethylpyrrolidine-1-oxyl chloride] |  |  |  |  |  |  |  |  |  |  |  | Decay in liver homogenates (liver homogenates): significantly decayed
6 | CCC1(CC)c2ccc(C(=O)O)cc2C(CC)(CC)N1[O] [Nitroxide 5, 5-carboxy-1,1,3,3-tetraethyl-2-isoindolinyloxyl] | 30% |  |  | 0.02 ± 0.01 M⁻¹ s⁻¹ | not the case | 0.0 *** nmol·min^−1·mg^−1 prot | 0.0 *** nmol·min^−1·mg^−1 prot | 3.4 ± 0.2 nmol·min^−1·mg^−1 prot | 0.88 ± 0.05 nmol·min^−1·nmol^−1 P450 | 0.0 *** nmol·min^−1·mg^−1 prot | 0.0 *** nmol·min^−1·mg^−1 prot | New six-line paramagnetic species formed, share of the initial nitroxide ([4]; 300 μM nitroxide, RLM 30 μM P450, 2 mM NADPH, 21 °C, at 10 min (maximum)): 7%
7 | CCC1(CC)CC(C(=O)O)C(CC)(CC)N1[O] (centres unmarked) [Nitroxide 3, 3-carboxy-2,2,5,5-tetraethyl-1-pyrrolidinyloxyl] | hardly detectable | 0.0011 ± 0.0002 ^a M^−1·s^−1 | 0.002 ± 0.001 M⁻¹ s⁻¹ | 0.0011 ± 0.0002 M⁻¹ s⁻¹ | not the case | 0.0 ** nmol·min^−1·mg^−1 prot | 0.0 ** nmol·min^−1·mg^−1 prot | 1.8 ± 0.2 nmol·min^−1·mg^−1 prot | 0.46 ± 0.05 nmol·min^−1·nmol^−1 P450 | 0.0 ** nmol·min^−1·mg^−1 prot | 0.0 ** nmol·min^−1·mg^−1 prot | Initial second-order reaction rate constant k0 for reduction by excess ascorbate ([2]; ref 30): ≤0.001 M⁻¹ s⁻¹; Decay in 30 min (conversion by P450) [4]: 5–10%
